Measured values: US20230038623A1, “NOVEL SKIN CARE COMPOSITION” (BEIERSDORF AG, priority 2019, published 2023)

What was measured:
[1] = tested on: C. acnes strain K8; test: Evaluation of the minimum inhibitory concentration (MIC) of cosmetic excipients; assay type: cell-based, Cutibacterium acnes; conditions: MIC (% w/vol) at which compound starts interfering with growth, anaerobic, 3 days, 37° C., scored by turbidity
Method: (§1) In microbiology, the MIC is the lowest concentration of a chemical which prevents visible growth of bacterium. The resulted MIC value depends both on the microorganism and the test compound. The MIC is determined by preparing concentrations series of the test compound in vitro, incubating the solutions with the separate batches of cultured bacteria, and measuring the results using agar dilution or broth microdilution. For the experiments with C. acnes strains C3 and K8, media comprising yeast extract soy peptone and dextrose were used. The MIC is determined by turbidity.
(§2) A total of 125 cosmetic excipients were tested for their compatibility with C. acnes strains C3 and K8. Hydrophilic compounds were tested in a 96-well plate liquid broth format, poorly soluble compounds were pre-dissolved in DMSO before dilution in liquid broth and hydrophobic or solid compounds were tested in an agar well diffusion test assay. The different dilutions of the test excipients in media were prepared in Falcon tubes and then distributed in a deep well plate using a multistepper. Each well received 1.2 ml and was subsequently inoculated with 120 μl of C. acnes bacteria suspension (strain C3 and K8). From the deep well plate 200 μl were transferred in each well of a clear 96 well replicate plate. The leftover was discarded. The plates were then incubated anaerobically for 3 days at 37° C. Following incubation, the test plates were visually examined and wells were scored for growth or complete growth inhibition to define the minimum inhibitory concentration.
(§3) These excipients are listed in the below table with their compatibility values for C. acnes strains C3 and K8. The compatibility values represent the MIC value of the listed ingredients with the tested C. acnes strains. At this concentration [% w/vol] the tested compound starts interfering with the growth of the tested strains. The compounds can be used in formulations at concentrations below this concentration.

[2] = tested on: C. acnes strain C3; test: as above; assay type: cell-based, Cutibacterium acnes; conditions: MIC (% w/vol) at which compound starts interfering with growth, anaerobic, 3 days, 37° C., scored by turbidity
Method: as §1, §2, §3

| Molecule | COMPATABILITY VALUE K8 [%] [1] | COMPATABILITY VALUE C3 [%] [2] |
| --- | --- | --- |
| CCCCCCC(O)CO (centres unmarked) [caprylyl glycol] | 0.18% | 0.18% |
| CC(CO)CO [methylpropanediol] | 4.00% | 4.00% |
| ethylhexyl cocoate | 10.00% | 10.00% |
| tocopherol | 1.50% | 1.50% |
